EC50 data for 25 molecules are collected here from US20230002324A1, “NAPHTHOQUINONE DERIVATIVES FOR TREATMENT OF OXIDATIVE STRESS DISORDERS” (PTC THERAPEUTICS, INC., priority 2019, published 2023).

One assay deals with Q7 cells (ST HDH Q7/7; immortalized mouse striatal cells). Nature of the assay: Q7 RSL3 challenge cell survival (rescue) assay. Format: cell-based. The conditions noted are these: 18 h, read-out: Q7 RSL3 Survival EC50. The source says:
(§1) In neuronal cells excess extracellular glutamate inhibits the cystine/glutamate antiporter leading to intracellular cysteine depletion, GSH depletion, reactive oxygen species (ROS) production and cell death, a phenomenon termed oxidative glutamate toxicity, oxytosis, or ferroptosis. […] Q7 cells (ST HDH Q7/7; immortalized mouse striatal cells) challenged with cystine-free media or the selective, irreversible GPX4 inhibitor, methyl (1S,3R)-2-(2-chloroacetyl)-1-(4-(methoxycarbonyl)phenyl)-2,3,4,9-tetrahydro-1H-pyrido[3,4-b]indole-3-carboxylate (hereafter referred to as RSL3), recapitulate this phenotype, as do normal human fibroblasts (NHF) challenged with RSL3. An initial screen was performed to identify compounds effective in rescuing Q7 and/or NHF cells from death resulting from cystine deprivation or RSL3 challenge. This method is further described in Yonezawa et al., J. Neurochem 67, 566-573 (1996), Li et al., J Neurosci., 23, 5816-5826 (2003), Yang and Stockwell, Chem Biol., 15: 234-45 (2008), and Yang et al., Cell 156, 317-331 (2014). See also Hinman A, Holst C R, Latham J C, et al. Vitamin E hydroquinone is an endogenous regulator of ferroptosis via redox control of 15-lipoxygenase. PLoS One. 2018; 13(8):e0201369. Published 2018 Aug. 15. doi:10.1371/journal.pone.0201369; and Kahn-Kirby A H, Amagata A, Maeder C I, et al. Targeting ferroptosis: A novel therapeutic strategy for the treatment of mitochondrial disease-related epilepsy. PLoS One. 2019; 14(3):e0214250. Published 2019 Mar. 28. doi:10.1371/journal.pone.0214250.
(§2) DMEM (Catalog no. 11995-040), DMEM without Cystine (Catalog no. 21013-024), DMEM without Glucose (Catalog A1443001), PBS (Phosphate buffered saline), Penicillin-streptomycin mix, L-Glutamine, Glucose, Phenol Red, and Pyruvate were purchased from ThermoFisher Scientific (Gibco). Fetal Bovine Serum was obtained from Mediatech, Inc., or Sigma Aldrich. Mouse striatum derived ST HDH Q7/7 (Q7) and normal human skin fibroblast (NHF, product number GM21811) cells were obtained from the Coriell Institute. Methionine and Vitamin K2 were purchased from Sigma Aldrich. RSL3 was synthesized as previously described (see e.g. US Patent Publication US2010/0081654). Cell Titer Glo 2.0 was purchased from Promega. Q7 cell culture medium (Q7 growth medium) was made by combining 50 mL Fetal Bovine Serum, 100 U/mL penicillin, and 100 microgram/mL streptomycin; DMEM was added to make the volume up to 500 mL. Assay medium for the Cystine Deprivation assay was prepared by combining 50 mL Fetal Bovine Serum, 100 U/mL penicillin, 100 microgram/mL streptomycin, 4 mM L-Glutamine, 1 mM Pyruvate and 30 mg/L Methionine; DMEM without Cystine was added to make the volume up to 500 mL. NHF cell culture medium (NHF growth medium) was made by combining 50 mL Fetal Bovine Serum, 100 U/mL penicillin, 100 microgram/mL streptomycin, 2.8 mL 20% Glucose solution (final concentration 6 mM), L-glutamine (final concentration 2 mM), phenol red (final concentration 15 mg/L); DMEM without Glucose was added to make the volume up to 500 mL. Assay medium for the RSL3 challenge assay was identical to Growth medium. While not in use during the course of the experiments, these solutions were stored at 4° C. The cells were grown in 150-cm^2 tissue culture-treated flasks. Every third or fourth day, the cells were sub-cultured by trypsinization and re-seeded at a cell density of 600,000 (Q7) or 300,000 (NHF) cells per flask.
(§3) Q7 or NHF cells were cultured routinely as described herein. For 384-well cell survival assays, cells were seeded in clear bottom, black wall 384-well tissue culture-treated polystyrene plates by re-suspending a cell suspension at a density of 50,000 cells/mL in growth medium, then dispensing 60 microliters of cell suspension per well using either an electronic multichannel pipette or a Multidrop™ Combi Reagent Dispenser (ThermoFisher Scientific), corresponding to 3,000 cells/well. […]
For the molecule `CC1=C(Cc2ccc(C(F)(F)F)cn2)C(=O)c2cc(Cl)cc(Cl)c2C1=O` [Example 58, 5,7-dichloro-3-methyl-2-[[5-(trifluoromethyl)-2-pyridyl]methyl]naphthalene-1,4-dione], the EC50 is < 50 nM.

Staying with this assay, now noted: Q7 cells, RSL3 2 micromolar, 18 h, Cell Titer Glo, read-out: Q7 RSL3 Survival EC50.
`CC1=C(Cc2ccc(C(F)(F)F)cn2)C(=O)c2ccc(F)c(F)c2C1=O` [Example 80, 5,6-difluoro-3-methyl-2-((5-(trifluoromethyl)pyridin-2-yl)methyl)naphthalene-1,4-dione]: the EC50 was < 50 nM. Still for that read-out and setting: with `[2H]C([2H])([2H])C1=C(C([2H])([2H])c2ccc(C(F)(F)F)cn2)C(=O)c2ccccc2C1=O` [Example 22, 2-(methyl-d3)-3-((5-(trifluoromethyl)pyridin-2-yl)methyl-d2)naphthalene-1,4-dione] the figure was < 50 nM; with `CC1=C(Cc2ccc(C(F)(F)F)c(C#N)n2)C(=O)c2c(F)c(F)cc(F)c2C1=O` [Example 130, 6-((5,7,8-trifluoro-3-methyl-1,4-dioxo-1,4-dihydronaphthalen-2-yl)methyl)-3-(trifluoromethyl)picolinonitrile], > 1000 nM.

With `CC1=C(Cc2ccc(C(F)(F)F)cn2)C(=O)c2ccc(Cl)cc2C1=O` [Example 59, 6-chloro-3-methyl-2-[[5-(trifluoromethyl)-2-pyridyl]methyl]naphthalene-1,4-dione], the EC50 was < 50 nM. The same measure, in the same setting: next, `CCCC1=C(Cc2ccc(C(F)(F)F)c(C#N)n2)C(=O)c2c(F)ccc(F)c2C1=O` [Example 85, 6-((5,8-difluoro-1,4-dioxo-3-propyl-1,4-dihydronaphthalen-2-yl)methyl)-3-(trifluoromethyl)picolinonitrile]: < 50 nM; `CC1=C(Cc2ccc(C(F)(F)F)cn2)C(=O)c2cc(F)c(F)cc2C1=O` [Example 78, 6,7-difluoro-2-methyl-3-((5-(trifluoromethyl)pyridin-2-yl)methyl)naphthalene-1,4-dione]: < 50 nM.

The next assay shares this test system. Nature of the assay: Q7 Cystine Deprivation cell survival (rescue) assay. The class given is cell-based. To be noted: Q7 cells, cystine-free medium, 18 h, Cell Titer Glo, 50% relative viability vs Vitamin K2 (1 micromolar), read-out: Q7 Cystine Deprivation Survival EC50.
Text: as §1, §2, §3
Take `CC1=C(Cc2ccc(C(F)(F)F)cn2)C(=O)c2ccc(F)cc2C1=O` [Example 44, 6-fluoro-3-methyl-2-((5-(trifluoromethyl)pyridin-2-yl)methyl)naphthalene-1,4-dione]: the EC50 was < 50 nM.

Turning to `CC1=C(Cc2ccc(C(F)(F)F)cn2)C(=O)c2cc(C)ccc2C1=O` [Example 42, 2,6-dimethyl-3-((5-(trifluoromethyl)pyridin-2-yl)methyl)naphthalene-1,4-dione], the EC50 is < 50 nM.

The test system of another assay is normal human fibroblasts (NHF, GM21811). The assay can be described thus: NHF GM21811 RSL3 challenge cell survival (rescue) assay. The class given is cell-based. To be noted: Fibroblast, NHF cells, RSL3 2 micromolar, 48 h, Cell Titer Glo, read-out: NHF GM21811 RSL3 Survival EC50.
Text: as §1, §2, §3
Regarding `CC1=C(Cc2ccc(C(F)(F)F)cn2)C(=O)c2ccc(F)cc2C1=O` [Example 44, 6-fluoro-3-methyl-2-((5-(trifluoromethyl)pyridin-2-yl)methyl)naphthalene-1,4-dione], the EC50 is < 50 nM.

As for `CCC1=C(Cc2ccc(OC(F)(F)F)cn2)C(=O)c2c(F)ccc(F)c2C1=O` [Example 138, 2-ethyl-5,8-difluoro-3-((5-(trifluoromethoxy)pyridin-2-yl)methyl)naphthalene-1,4-dione], the EC50 is < 50 nM.

As for `CCC1=C(Cc2cc(C(F)(F)F)c(OC)cn2)C(=O)c2ccccc2C1=O` [Example 147, 2-ethyl-3-((5-methoxy-4-(trifluoromethyl)141yridine-2-yl)methyl)naphthalene-1,4-dione], the EC50 is < 50 nM. As to `CCC1=C(Cc2ccc(F)cn2)C(=O)c2c(F)cc(F)cc2C1=O` [Example 92, 2-ethyl-5,7-difluoro-3-((5-fluoropyridin-2-yl)methyl)naphthalene-1,4-dione], the EC50 is < 50 nM.

`CC1=C(Cc2ccc(C(F)(F)F)cn2)C(=O)c2cc(C)ccc2C1=O` [Example 42, 2,6-dimethyl-3-((5-(trifluoromethyl)pyridin-2-yl)methyl)naphthalene-1,4-dione]: the EC50 is < 50 nM. As to `CCC1=C(Cc2ccc(C(F)(F)F)cn2)C(=O)c2cccc(F)c2C1=O` [Example 61, 3-ethyl-5-fluoro-2-((5-(trifluoromethyl)pyridin-2-yl)methyl)naphthalene-1,4-dione], the concentration giving a half-maximal response (EC50) is < 50 nM. `CCC1=C(Cc2ccc(C(F)(F)C(F)(F)F)cn2)C(=O)c2c(F)ccc(F)c2C1=O` [Example 141, 2-ethyl-5,8-difluoro-3-((5-(perfluoroethyl)pyridin-2-yl)methyl)naphthalene-1,4-dione]: the EC50 was < 50 nM. As for `[2H]C([2H])([2H])C1=C(Cc2ccc(C(F)(F)F)c(C(N)=O)n2)C(=O)c2c(F)ccc(F)c2C1=O` [Example 126, 6-((5,8-difluoro-3-(methyl-d3)-1,4-dioxo-1,4-dihydronaphthalen-2-yl)methyl)-3-(trifluoromethyl)picolinamide], the concentration for a half-maximal effect (EC50) was < 50 nM. For `CCC1=C(Cc2ccc(C(C)(F)F)cn2)C(=O)c2ccccc2C1=O` [Example 137, 2-((5-(1,1-difluoroethyl)pyridin-2-yl)methyl)-3-ethylnaphthalene-1,4-dione], the EC50 was < 50 nM. As for `N#Cc1nc(CC2=C(C3CC3)C(=O)c3cc(F)ccc3C2=O)ccc1C(F)(F)F` [Example 96, 6-((3-cyclopropyl-6-fluoro-1,4-dioxo-1,4-dihydronaphthalen-2-yl)methyl)-3-(trifluoromethyl)picolinonitrile], the EC50 is < 50 nM. Take `CCC1=C(Cc2cc(C(F)(F)F)c(C)cn2)C(=O)c2ccccc2C1=O` [Example 149, 2-ethyl-3-((5-methyl-4-(trifluoromethyl)pyridin-2-yl)methyl)naphthalene-1,4-dione]: the EC50 was < 50 nM. As for `CCC1=C(Cc2ccc(C(F)(F)F)cn2)C(=O)c2c(ccc(F)c2F)C1=O` [Example 63, 2-ethyl-5,6-difluoro-3-((5-(trifluoromethyl)pyridin-2-yl)methyl)naphthalene-1,4-dione], the concentration giving a half-maximal response (EC50) was < 50 nM. Regarding `CCC1=C(Cc2ccc(C)c(OC)n2)C(=O)c2c(F)ccc(F)c2C1=O` [Example 97, 2-ethyl-5,8-difluoro-3-((6-methoxy-5-methylpyridin-2-yl)methyl)naphthalene-1,4-dione], the EC50 was < 50 nM. The same measure, in the same setting: with `CCC1=C(Cc2ccc(CC(F)(F)F)cn2)C(=O)c2c(F)ccc(F)c2C1=O` [Example 133, 2-ethyl-5,8-difluoro-3-((5-(2,2,2-trifluoroethyl)pyridin-2-yl)methyl)naphthalene-1,4-dione] the figure was < 50 nM; with `CCC1=C(Cc2ccc(F)c(C)n2)C(=O)c2c(F)ccc(F)c2C1=O` [Example 140, 2-ethyl-5,8-difluoro-3-((5-fluoro-6-methylpyridin-2-yl)methyl)naphthalene-1,4-dione], < 50 nM; with `CCC1=C(Cc2ccc(C(F)(F)C(F)(F)F)cn2)C(=O)c2ccccc2C1=O` [Example 148, 2-ethyl-3-((5-(perfluoroethyl)142yridine-2-yl)methyl)naphthalene-1,4-dione], < 50 nM.

Turning to `[2H]C([2H])([2H])C1=C(Cc2ccc(C(F)(F)F)c(C(=O)O)n2)C(=O)c2c(F)ccc(F)c2C1=O` [Example 127, 6-((5,8-difluoro-3-(methyl-d3)-1,4-dioxo-1,4-dihydronaphthalen-2-yl)methyl)-3-(trifluoromethyl)picolinic acid], the EC50 was in the range of 50 to 250 nM.

On to `CCC1=C(Cc2ncc(C(F)(F)F)cc2Cl)C(=O)c2c(F)cc(F)cc2C1=O` [Example 94, 3-((3-chloro-5-(trifluoromethyl)pyridin-2-yl)methyl)-2-ethyl-5,7-difluoronaphthalene-1,4-dione], for which the EC50 was < 50 nM.
